Results taken from PubChem BioAssay AID588407 (The Scripps Research Institute Molecular Screening Center, 2011).
Calls of active or inactive are those of the source. The rule behind the calls is not given here.

Target: Mu-type opioid receptor (Homo sapiens) + Delta-type opioid receptor (Homo sapiens) (UniProt P35372+P41143)
Assay: agonists of MOR-DOR heterodimerization, dose response, cell-based, luminescence (AID 588407);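 note: potency of agonists raising the heterodimer signal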
Conditions: cells

Mu-type opioid receptor (Homo sapiens) + Delta-type opioid receptor (Homo sapiens), sequence (P35372 whole entry, looked up): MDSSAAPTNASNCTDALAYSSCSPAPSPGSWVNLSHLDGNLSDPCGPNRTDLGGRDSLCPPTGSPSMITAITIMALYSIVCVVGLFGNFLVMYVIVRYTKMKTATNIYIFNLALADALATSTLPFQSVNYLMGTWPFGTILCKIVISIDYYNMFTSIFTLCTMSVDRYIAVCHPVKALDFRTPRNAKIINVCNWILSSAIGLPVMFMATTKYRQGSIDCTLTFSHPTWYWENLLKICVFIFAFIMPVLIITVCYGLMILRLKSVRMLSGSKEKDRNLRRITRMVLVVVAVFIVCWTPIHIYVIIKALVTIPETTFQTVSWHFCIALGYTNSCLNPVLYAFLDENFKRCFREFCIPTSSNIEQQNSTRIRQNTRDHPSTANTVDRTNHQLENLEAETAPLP
Mu-type opioid receptor (Homo sapiens) + Delta-type opioid receptor (Homo sapiens), sequence (P41143 whole entry, looked up): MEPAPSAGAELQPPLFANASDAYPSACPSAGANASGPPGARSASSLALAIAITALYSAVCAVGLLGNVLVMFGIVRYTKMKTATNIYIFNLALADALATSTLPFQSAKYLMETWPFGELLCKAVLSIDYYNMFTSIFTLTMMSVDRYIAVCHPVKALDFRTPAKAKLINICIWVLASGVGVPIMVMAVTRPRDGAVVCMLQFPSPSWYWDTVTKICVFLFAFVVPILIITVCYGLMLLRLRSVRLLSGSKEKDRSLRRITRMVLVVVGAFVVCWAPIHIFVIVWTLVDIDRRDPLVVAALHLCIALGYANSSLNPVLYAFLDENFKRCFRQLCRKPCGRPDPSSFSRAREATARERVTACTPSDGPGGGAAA

SMILES | EC50
Cc1ccc(CC(=O)NCC(c2ccco2)N(C)C)cc1C (centres undefined) | 9.05 µM
CN(C)C(CNC(=O)c1ccc2ccccc2c1)c1ccco1 (centres undefined) | inactive
CCOC(=O)C1(CC2CCCCO2)CCN(Cc2cc(F)ccc2-n2cccn2)CC1 (centres undefined) | 8.74 µM
COc1ccc(C(CNC(=O)/C=C/c2c(Cl)nc3ccccn23)N(C)C)cc1 (centres undefined) | 7.62 µM
COc1ccc(C(CNC(=O)C(C)c2ccc3cc(OC)ccc3c2)N(C)C)cc1 (centres undefined) | inactive
CCOC(=O)C1(CCOc2ccccc2)CCN(Cc2cnc(C)s2)CC1 | 7.89 µM
Cc1cc(/C=C2\SC(=Nc3ccccc3)NC2=O)c(C)n1-c1ccc(S(N)(=O)=O)cc1 | 1.53 µM
CC[C@@H](C)[C@@H]1CN([C@@H](CN2CCC[C@H]2CN2C(N)=NC[C@H]2C(C)C)C(C)C)C(=N)N1CCc1ccc(Cl)c(Cl)c1 | 2.36 µM
O=S(=O)(c1c(Cl)cc(Br)cc1Cl)N1CCN(C(=S)NC2CC2)CC1 | 5.98 µM
COc1ccc(NS(=O)(=O)c2ccc(O)c(NC(=O)c3cc4c(C)nn(-c5ccc(F)cc5)c4s3)c2)cc1 | > 92.5 µM (inactive)
CN(C)CCCN(C(=O)c1ccc(Br)s1)c1nc2cc3c(cc2s1)OCCO3 | inactive
CCN(Cc1ccccc1)S(=O)(=O)c1ccc(C(=O)N(CCCN(C)C)c2nc3c(C)c(C)ccc3s2)cc1 | inactive
CC(C)c1ccc(NC(=O)N(CCc2nc3ccccc3[nH]2)C2CCCC2)cc1 | inactive
CN(C)C(CNC(=O)c1cc2ccccc2o1)c1ccco1 (centres undefined) | > 92.5 µM (inactive)
CCOc1ccc(Nc2c3ccccc3nc3ccccc23)cc1 | inactive
COc1ccc(-n2cc(CNCc3cccnc3)c(-c3cccc(F)c3)n2)cc1 | inactive
Cc1ccc(Cl)cc1NC(=O)CNCC(c1ccccc1)N(C)C (centres undefined) | 9.86 µM
CCOC(=O)C1(c2ccccc2)CCN(CCC(=O)Nc2cccc(Br)c2)CC1 | 8.78 µM
CSC(=Nc1ccccc1)N=C(SCc1ccccc1)N(C)C | 7.33 µM
Cc1cc(/C=C2\SC(=S)N(C)C2=O)c(C)n1-c1ccc(O)cc1 | inactive
Cc1ccc2cc(C(c3nnnn3Cc3ccccc3)N3CCc4ccccc43)c(=O)[nH]c2c1 (centres undefined) | inactive
COc1cc(NC(=O)c2cccc(C)c2)ccc1NC(=O)c1cc2ccccc2o1 | inactive
CCCC(=O)NC(C)C(c1cccs1)N1CCN(c2ccccc2)CC1 (centres undefined) | inactive
COc1ccc(C(CNC(=O)c2cncc(Br)c2)N(C)C)cc1 (centres undefined) | 2.02 µM
CN(C)C(CNC(=O)Cc1ccc(Br)cc1)c1ccccc1 (centres undefined) | 0.915 µM

SMILES | EC50
COc1ccc(/C=C/C(=O)NC(=S)NCCc2ccc(OC)c(OC)c2)cc1 | 8.72 µM
O=C(NCCc1ccc(Cl)cc1)C1CCC(CNc2nc(=S)[nH]c3ccccc23)CC1 (centres undefined) | > 92.5 µM (inactive)
O=C1C=C(c2c(O)ccc3ccccc23)c2ccccc2C1=O | 9.82 µM
Cn1c(-c2c(N)n(CCc3ccccc3)c3nc4ccccc4nc23)nc2ccccc21 | 3.15 µM
CSCCC(/C(O)=C(\C#N)c1nc2ccccc2[nH]1)N1C(=O)c2ccccc2C1=O (centres undefined) | 9.92 µM
COc1ccc(C(C(=O)NC2CCCCC2)N(C(=O)Cc2c[nH]c3ccccc23)c2ccc(NC(C)=O)cc2)cc1OC (centres undefined) | > 92.5 µM (inactive)
CN(C)CCCN(C(=O)c1ccc(S(=O)(=O)N2CCc3ccccc3C2)cc1)c1nc2ccc(F)cc2s1 | 1.27 µM
COc1cc2c3cc1Oc1cc(ccc1O)C[C@@H]1c4c(cc(OC)c(O)c4Oc4ccc(cc4)C[C@H]3N(C)CC2)CCN1C | inactive
Cc1ccccc1N(CC(=O)N/N=C/c1ccc(F)cc1)C(=O)c1ccccc1 | inactive
Cc1ccc(C)c(-n2cc(CNCCCn3cccn3)c(-c3ccccc3)n2)c1 | 0.654 µM
COCCN(C(=O)C1CC(=O)N(Cc2ccccc2)C1)c1nc(-c2ccc([N+](=O)[O-])cc2)cs1 (centres undefined) | 5.6 µM
Cc1cccc2cc(C(c3nnnn3Cc3ccccc3)N3CCN(C)CC3)c(=O)[nH]c12 (centres undefined) | inactive
CN(C)C(CNC(=O)NC1CCCCC1)c1cccnc1 (centres undefined) | 1.27 µM
CC1CN(C)C(C)c2c1oc1ccc(N)cc21 (centres undefined) | inactive
CC1=C/C(=N\OS(=O)(=O)c2ccccc2)C(C)=CC1=O | inactive
Cc1ccc(C)c(NC(=S)NCC(c2ccccc2)N(C)C)c1 (centres undefined) | 0.535 µM
COc1ccccc1CN1CCN(C(CC(C)C)c2nnnn2Cc2cccs2)CC1 (centres undefined) | inactive
CCOC(=O)C1(CCCc2ccccc2)CCN(Cc2cnn(C)c2)CC1 | 4.56 µM
Clc1ccc2c(N/N=C/c3ccccc3Br)ccnc2c1 | 9.73 µM
COc1ccc(C(C)NCCC(c2ccc(OC(C)C)cc2)c2ccccc2OC)cc1 (centres undefined) | inactive
Cc1ccc2c(Cl)c(Cc3ccccc3)c(=S)[nH]c2n1 | inactive
COc1cc(Br)cc(/C=N/NC(=O)Cc2ccc(C(F)(F)F)cc2[N+](=O)[O-])c1O | inactive
COc1ccc2[nH]c3c(=O)n(/N=C/[C@H]4C(C)C=C(C)CC4C)c(=O)[nH]c3c2c1 (some centres undefined) | > 92.5 µM (inactive)
Cn1c(CN2CCN(c3cccc(Cl)c3)CC2)nc2ccccc21 | 3.34 µM
Brc1ccc(NC2=Nc3ccccc3CC2)cc1 | inactive

SMILES | EC50
COc1ccc(-c2nc(CN3CCC(C(=O)NC4CCCc5ccccc54)CC3)c(C)o2)cc1OC (centres undefined) | 1.9 µM
OCC1(CCc2ccccc2)CCN(Cc2cc(F)ccc2-n2cccn2)CC1 | 4.67 µM
CCN1CCN(Cc2ccc(NC(=O)c3ccc(C)c(NC(=O)c4c[nH]c5cc(C(F)(F)F)ccc5c4=O)c3)cc2C(F)(F)F)CC1 | 9.63 µM
CN(C)C(CNC(=S)Nc1cccc(Cl)c1)c1cccnc1 (centres undefined) | 0.408 µM
COC(=O)C1=C(C)N(CCCC(=O)O)C(=O)NC1c1ccccc1OS(=O)(=O)c1ccc([N+](=O)[O-])cc1 (centres undefined) | 5.73 µM
CC(=O)C1CCC2C3CC=C4CC(SC(=N)N)CCC4(C)C3CCC12C (centres undefined) | 9.58 µM
CCOC(=O)C1(CCOc2ccccc2)CCN(Cc2cccn2-c2cccnc2)CC1 | 1.67 µM
Cc1ccc2nc(SC(C(=O)Nc3ccc(F)cc3)c3ccccc3)[nH]c2c1 (centres undefined) | > 92.5 µM (inactive)
COC(=O)c1cc2c(n1S(=O)(=O)c1ccc(C)cc1)C(=O)C(=O)c1[nH]cc(C(=O)OCc3ccccc3)c1-2 | 2.56 µM
CN(C(=O)Cc1ccc(Cl)c(Cl)c1)C(CN1CCCC1)c1cccc(OCC(=O)O)c1 (centres undefined) | inactive
CN(C)C(CNC(=O)c1cccc(C(F)(F)F)c1)c1ccco1 (centres undefined) | > 92.4 µM (inactive)
Cc1cc(N2CCN(c3ccc([N+](=O)[O-])c4cccnc34)CC2)c2ccccc2n1 | > 92.5 µM (inactive)
O=S(=O)(NC1CC1)c1ccc(S(=O)(=O)N2CCCC3(CCCCC3)C2)cc1 | inactive
CCOC(=O)c1c(C)[nH]c(C(=O)OCC(O)=C(C#N)c2nc3ccccc3[nH]2)c1C | > 92.5 µM (inactive)
CCNS(=O)(=O)c1ccc(NC(=O)Nc2ccc3c(c2)OCO3)cc1 | 9.34 µM
Cc1cccc(NC(=S)NCC(c2cccnc2)N(C)C)c1 (centres undefined) | 1.02 µM
COc1ccc(CN2CCc3c([nH]c4ccccc34)C2)c(OC)c1C | inactive
O=C(N[C@H]1C/C=C\C[C@H](CC(=O)N(CCO)Cc2ccccc2)C(=O)N[C@H](Cc2c[nH]c3ccccc23)COC1=O)OCC1c2ccccc2-c2ccccc21 | inactive
Cc1cccc(OCCC(=O)NCC(c2ccccc2)N(C)C)c1 (centres undefined) | inactive
CN1C2C=C(N(CCc3c[nH]c4ccccc34)C(=O)c3ccc(Cl)cc3)CC1CC2 (centres undefined) | 4.76 µM
COC(=O)NCC(c1ccc2c(c1)OCO2)N1CCN(c2ccccc2)CC1 (centres undefined) | 1.25 µM
CN(C)C(CNC(=O)Cc1ccc([N+](=O)[O-])cc1)c1ccccc1 (centres undefined) | 7.74 µM
O=C(C=P(c1ccccc1)(c1ccccc1)c1ccccc1)c1ccccc1-c1ccccc1C(=O)C=P(c1ccccc1)(c1ccccc1)c1ccccc1 | > 92.5 µM (inactive)
Cc1nc2nc(C)n(CCN3CCOCC3)c(=O)c2c(-c2cccc([N+](=O)[O-])c2)c1C(=O)CCCCCCCCCCN1CCC(c2ccccc2)(c2ccccc2)CC1 | inactive
Cc1cc2[nH]c3c4ccccc4nc(C)c3c2cc1C | 7.66 µM

SMILES | EC50
COc1ccc(C(CNC(=O)CCc2ccsc2)N(C)C)cc1 (centres undefined) | 0.2 µM
CN(C)C(CNC(C(=O)Nc1ccc([N+](=O)[O-])cc1Br)c1ccccc1)c1ccccc1 (centres undefined) | 9.79 µM
Cc1cc(/C=C2/C(=O)NN(c3ccccc3)C2=O)c(C)n1-c1ccc(O)cc1 | 8.46 µM
CN(C)CCCN(C(=O)c1ccc(S(=O)(=O)N2CCCCCC2)cc1)c1nc2c(F)cc(F)cc2s1 | 5.86 µM
OCC1(CCc2ccccc2)CCN(Cc2ccccc2Cl)CC1 | 9.21 µM
COc1cccc(CC2(CO)CCCN(Cc3ccccc3-c3ccco3)C2)c1 (centres undefined) | 8.88 µM
CCN1CCN(S(=O)(=O)c2ccc(Cl)c(C(=O)N(CCc3ccccc3)Cc3ccccc3)c2)CC1 | inactive
Cc1cc(C)cc(C(=O)N(CCc2ccccc2)C2=CC3CCC(C2)N3C)c1 (centres undefined) | 5.91 µM
CCN(CC)Cc1cc(Nc2c3ccccc3nc3c4ccccc4n(C)c23)cc(CN(CC)CC)c1O | 1.78 µM
Cc1c(CCOC(=O)c2ccccc2)sc[n+]1CC(=O)c1ccc(Br)cc1 | inactive
COc1ccccc1NC(=O)c1sc2nc(C)cc(C)c2c1N | > 92.5 µM (inactive)
O=C(CSc1ccc(Cl)cc1)Nc1ccc(-c2nc3ccccc3[nH]2)cc1 | > 92.5 µM (inactive)
COc1ccc2c(c1)C=C(CN1CCC(CO)(CCc3ccccc3)CC1)CO2 | inactive
COc1cccc(C(=O)Nc2ccc3c(c2)C(=O)c2ccccc2C3=O)c1 | 6.74 µM
COc1ccc(C2CC(c3ccc(OC)cc3)n3nc(NC(=O)c4cccs4)nc3N2)cc1 (centres undefined) | inactive
Cc1ccc(C)c(-n2cc(CNCCc3cnccn3)c(-c3ccccc3)n2)c1 | 10 µM
CCc1cccc(C)c1NC(=S)NCC(c1cccnc1)N(C)C (centres undefined) | 3.68 µM
CCOC(=O)C1(CCOc2ccccc2)CCN(Cc2ccc3c(c2)OCCO3)CC1 | inactive
OC(CNCCC(c1ccccc1)c1ccccc1)COc1ccccc1 (centres undefined) | inactive
CSCCCNC(=O)c1ccc(OC2CCN(CCc3ccccc3)CC2)cc1 | inactive
Cc1ccc(OCC(=O)Nc2ccc(NC(=O)c3cccs3)cc2)c(C)c1 | > 10.3 µM (inactive)
COC(=O)CCCNC(=O)c1ccc(OC2CCN(CCc3ccccc3)CC2)cc1 | inactive
Cc1ccc(C2(O)CN(c3ccccc3C)C3=[N+]2CCS3)cc1 (centres undefined) | 0.381 µM
CN(C)C(CNC(=S)Nc1ccccc1Cl)c1cccnc1 (centres undefined) | 0.524 µM
